The target in data set [1] is T1, Tyrosine-protein kinase SYK (Homo sapiens, UniProt P43405). The experiment in a line: Inhibition of GST-tagged full length human SYK (1 to 635 end residues) expressed in baculovirus expression system preincubated for 10 mins followed by Blk/Lyntide substrate and ATP addition measured after 45 mins TR-FRET assay.
Data set [2] has as its target T1, Tyrosine-protein kinase SYK. The experiment in a line: Inhibition of GST-tagged full length human SYK (1 to 635 end residues) expressed in baculovirus expression system at 10 uM preincubated for 10 mins followed by Blk/Lyntide substrate and ATP addition measured after 45 mins TR-FRET assay relative to control.
Data set [3] has as its system Salmonella typhimurium. The experiment in a line: Genotoxicity in Salmonella typhimurium TA97a in presence of rat s9 fraction by Ames test. The format is toxicity, organism-based. Particulars: salmonella enterica subsp. enterica serovar typhimurium. For orientation: The Ames test detects mutagens through reverse mutation in bacteria.
The nature of data set [4]: Unbound plasma clearance in po dosed rat. Format: ADME, organism-based. Particulars: in vivo.
The nature of data set [5]: Oral bioavailability in rat. Particulars: in vivo. The format is ADME, organism-based.
Data set [6] has as its system Rattus norvegicus. The data set is described as follows: Antiarthritic activity in collagen-induced arthritis rat model at 3 mg/kg, po administered qd. Format: functional, organism-based.
For data set [7], the system named is Salmonella typhimurium. The data set is described as follows: Genotoxicity in Salmonella typhimurium TA97a by Ames test. The format is toxicity, organism-based. Particulars: salmonella enterica subsp. enterica serovar typhimurium.

Consider 10 molecules from ChEMBL document CHEMBL3864189, “Carboxamide Spleen Tyrosine Kinase (Syk) Inhibitors: Leveraging Ground State Interactions To Accelerate Optimization” (ACS Med Chem Lett, 2016).

Molecules are shown by their SMILES. Active and inactive are the calls of the source. No cut-off for these calls is given here. Some results are limits rather than exact numbers.

The term IC50 denotes the point on the concentration scale where inhibition reaches its midpoint. What is called inhibition is the percentage by which the read-out fell short of the control. High values mean a response far below the control, low ones a response near the control. In data set [1], `Cn1cc(-c2cc(N[C@@H]3CCCC[C@@H]3N)cnc2C(N)=O)cn1` showed a half-maximal inhibitory concentration (IC50) of over 10 µM. In data set [2], this molecule registered an inhibition of 9%. For the same molecule, the Activity result in data set [3] was “Non-Toxic”. In data set [4], `COc1cccc2[nH]c(-c3nc(N[C@@H]4CCOC[C@@H]4N)cnc3C(N)=O)cc12` yielded a CL free of 100 mL/min/kg. For the same molecule, the Activity result in data set [3] was “Non-Toxic”. One may read the bioavailability as dose-corrected exposure relative to a reference, in per cent. A low value points to little systemic uptake. On to `NC(=O)c1ncc(N[C@@H]2CCCC[C@@H]2N)nc1-c1cc2ccccc2[nH]1`, for which, in data set [5], the bioavailability amounted to 19%. In data set [4], the CL free was 255 mL/min/kg. Further, the Activity entry in data set [3] is given as “Non-Toxic”. In the case of `NC(=O)c1ncc(N[C@@H]2CCCC[C@@H]2N)cc1COc1ccccc1`, in data set [3], the Activity result is given as “Non-Toxic”. Still for that read-out and setting: the same measure for `C[C@H](N)CNc1cnc(C(N)=O)c(-c2cc3ccccc3[nH]2)n1`: “Non-Toxic”; for `C[C@H](N)CNc1cnc(C(N)=O)c(-c2cc3ccccc3o2)n1`: “Non-Toxic”; for `NC(=O)c1ncc(N[C@@H]2CCCC[C@@H]2N)cc1C#Cc1ccccc1`: “Non-Toxic”. `Cc1cc(C)nc(Nc2cc(N[C@@H]3CCCC[C@@H]3N)cnc2C(N)=O)c1` returned a CL free in data set [4] of 710 mL/min/kg. Further, in data set [6], the outcome was Active. For the same molecule, the Activity entry in data set [7] is “Toxic”.

As to `C[C@H](N)CNc1cnc(C(N)=O)c(-c2cnn(C)c2)n1`, the Activity result in data set [3] is given as “Non-Toxic”.

In the case of `NC(=O)c1ncc(N[C@@H]2CCCC[C@@H]2N)cc1/C=C/c1ccccc1`, in data set [3], the Activity result was “Non-Toxic”.
